Results as given in patent publication US20120010289A1, “METHOD FOR PLACENTAL EXFOLIATION USING OXO-ARACHIDONIC ACID OR THE LIKE” (Inc Admin Agcy Natl Agric & Food Res. Organization, priority 2007, published 2012).

How the values were obtained:
[1] = tested on: cultured fibroblasts derived from the placenta (MMP-producing cells); experiment: Cell exfoliation assay to search for MMP activators; type: cell-based; conditions: fibroblasts from bovine fetal placenta, monolayer treated with cortisol, compound added; FIG. 2 and FIG. 3
Protocol: The in vitro pharmacological evaluation is exemplified by a method using cultured fibroblasts derived from the placenta (MMP-producing cells). First, the composition for placental exfoliation of the present invention is added to a culture medium of the concerned cultured fibroblasts. After the addition, the cells are cultured for a fixed period of time.
Therefore, cultured fibroblasts derived from the placenta (MMP-producing cells) were used to search for MMP activators.
Since in vivo MMP-2 is produced from fibroblasts, fibroblasts were prepared from bovine fetal placenta. A fixed amount of cells were seeded on the culture plate, and were treated with cortisol after the monolayer formation. Further, the MMP activator candidate compounds were added thereto.

[2] = tested on: pregnant Holstein cow; experiment: Placental exfoliation by administration of 12-oxoarachidonic acid to a cow after prostaglandin-induced fetal delivery; type: in vivo
Protocol: The in vivo pharmacological evaluation is exemplified by a method using cows which have delivered fetuses by means of the single administration of a prostaglandin. First, the composition for placental exfoliation of the present invention is administered to cows after the fetal delivery.
In order to induce the fetal delivery, a formulation (10 ml) containing a naturally-occurring prostaglandin (50 mg) was intramuscularly injected into the hip of a pregnant Holstein cow (dairy cow) (body weight 779 kg) a week prior to the due date. Moreover, a cow after the third calving was again administered with the prostaglandin after 12 hours from the first injection thereof (evening on the first day).
The mother cow and the newborn calf were both healthy.
Next, after 4 hours from the fetal delivery, a saline solution (15 ml) containing 12-oxoarachidonic acid (1 mg) was intrajugularly injected into the mother cow which had delivered a fetus. After about 6 hours from the injection, the whole amount of the placenta was released from the mother cow. FIG. 4 presents photographs showing the manner of such parturition. […] In cases of the non-administration of 12-oxoarachidonic acid, the placenta was not released from the mother cow, and the placental retention occurred.

[3] = tested on: MMP; experiment: MMP activity in released placenta by gelatin zymography; type: in vivo, cow; conditions: PG-induction+oxo placenta compared with normal parturition and placental retention; FIG. 5
Protocol: In the method using gelatin zymography, first, the composition for MMP activation of the present invention is brought into contact with MMP-producing cells. After the incubation for a fixed time, the cells are lysed to make a protein solution, which is then subjected to an electrophoresis using a SDS polyacrylamide electrophoresis gel containing a gelatin (MMP substrate). After the migration, the temperature was kept for a fixed time to progress the enzyme reaction, followed by staining of undegraded gelatin remaining in the gel.
The MMP activity in released placenta was analyzed. The samples were as follows: a placenta released from a mother cow of normal parturition (without specific treatment) (expressed as “normal parturition” in FIG. 5); a placenta from a mother cow which was subjected to the fetal delivery induction with a prostaglandin but suffered from placental retention (expressed as “PG-induced parturition” in FIG. 5); a placenta released from a mother cow which was subjected to the fetal delivery induction with a prostaglandin and the subsequent placental release induction with a 12-oxoarachidonic acid (expressed as “PG-induction+oxo” in FIG. 5); and a placenta from a mother cow which had naturally-occurring placental retention (expressed as “placental retention cow” in FIG. 5).
The MMP activity was measured using gelatin zymography. […]

Compound	cell exfoliation activity (MMP activation ability) [1]	also measured
CCCCC/C=C\C[C@@H](O)/C=C/C=C\C/C=C\CCCC(=O)O [12(R)-hydroxyarachidonic acid]	no cell exfoliation activities	–
CCCCC/C=C\C[C@@H](/C=C/C=C\C/C=C\CCCC(=O)O)OO [12(S)-hydroperoxyarachidonic acid]	weak cell exfoliation activities	–
CCCCC/C=C\C[C@H](O)/C=C/C=C\C/C=C\CCCC(=O)O [12(S)-hydroxyarachidonic acid]	no cell exfoliation activities	–
CCCCC/C=C\CC(=O)/C=C/C=C\C/C=C\CCCC(=O)O [12-oxoarachidonic acid]	showed a cell exfoliation activity at a lower concentration than that of the arachidonic acid itself	time from injection to release of the whole amount of the placenta ([2]; 1 mg in 15 ml saline, intrajugular, 4 hours after fetal delivery, Holstein cow 779 kg): about 6 hours; reproductive function of the postexperimental mother cow ([2]; after 1 mg intrajugular 12-oxoarachidonic acid): reproductive function was not affected; MMP pattern (proMMP activity) of released placenta [3]: MMP pattern very close to that of the placenta released from the cow of normal parturition
CCCCC/C=C\C/C=C\C/C=C\C/C=C\CCCC(=O)O [arachidonic acid]	confirmed to have a cell exfoliation activity	–
CCCCC/C=C\C/C=C\C/C=C\CCCCCCC(=O)O [dihomo-γ-linolenic acid]	weak activity	–
CCCCC/C=C\C/C=C\CCCCCCCC(=O)O [linoleic acid]	weak activity	–
CC/C=C\C/C=C\C/C=C\C/C=C\CCCCC(=O)O [stearidonic acid]	weak activity	–
CC/C=C\C/C=C\C/C=C\CCCCCCCC(=O)O [α-linolenic acid]	weak activity	–
CCCCC/C=C\C/C=C\C/C=C\CCCCC(=O)O [γ-linolenic acid]	medium activity	–
CC/C=C/C/C=C/C/C=C/C/C=C/CCCCCCC(=O)O [ω-3-arachidonic acid]	weak activity	–
